The source of these data is patent US5607926A, “Cephalosporin antibiotics” (Microcide Pharmaceuticals, Inc., priority 1995, dated 1997).

Converted amounts (≈) assume the structure as drawn. Where a name gives a salt, the structure may show the parent alone. Read-outs that look alike come from different tables or passages of the source.

Type in all cases: cell-based
One test has as its system E. faecalis ATCC 29212. Briefly: In vitro antibacterial evaluation, MIC by agar dilution, E. faecalis ATCC 29212. Particulars: Enterococcus faecalis, ATCC29212. A digest of the protocol: (§1)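 Log-phase cultures (4-6 h broth growth) are adjusted to 0.5 McFarland and diluted to give roughly 10^4 cfu per 1 μL spot. Spots go onto Mueller-Hinton agar containing test compound in two-fold dilutions (128 to ≤0.25 μg/mL), then plates incubate 16-20 hours at 35°-36° C before MIC reading.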

Another test has as its system E. coli ATCC 25922. Briefly: In vitro antibacterial evaluation, MIC by agar dilution, E. coli ATCC 25922. Particulars: Escherichia coli, ATCC25922, read-out: MIC. In outline: as §1
Background: In agar dilution the substance is mixed into plates at graded concentrations.

The next test deals with E. faecium ATCC 35667. Briefly: In vitro antibacterial evaluation, MIC by agar dilution, E. faecium ATCC 35667. To be noted: Enterococcus faecium, ATCC35667, read-out: MIC. In outline: as §1
In the next test the test system is P. aeruginosa ATCC 27853. Description: In vitro antibacterial evaluation, MIC by agar dilution, P. aeruginosa ATCC 27853. To be noted: Pseudomonas aeruginosa, ATCC27853, read-out: MIC. A digest of the protocol: as §1
Test [1] has as its system S. aureus 76 (Meth^R)(lac^+). Briefly: In vitro antibacterial evaluation, MIC by agar dilution, S. aureus 76. Particulars: Staphylococcus aureus, read-out: MIC. A digest of the protocol: as §1
A further test deals with S. haemolyticus (Meth^R). Description: In vitro antibacterial evaluation, MIC by agar dilution, S. haemolyticus. To be noted: Staphylococcus haemolyticus, read-out: MIC. In outline: as §1
In another test the test system is S. aureus ATCC 25923. Description: In vitro antibacterial evaluation, MIC by agar dilution, S. aureus ATCC 25923. To be noted: Staphylococcus aureus, ATCC25923. In outline:
as §1

A further test relates to S. aureus ATCC 29213. Briefly: In vitro antibacterial evaluation, MIC by agar dilution, S. aureus ATCC 29213. Particulars: Staphylococcus aureus, ATCC29213. In outline: as §1
Test [2] deals with S. aureus Col8A (Meth^S)(lac^-). Description: In vitro antibacterial evaluation, MIC by agar dilution, S. aureus Col8A. To be noted: Staphylococcus aureus. A digest of the protocol:
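Log-phase isolates were spot-inoculated at about 10^4 cfu onto Mueller-Hinton agar carrying duplicate two-fold compound levels, 128 μg/mL to ≤0.25 μg/mL, following NCCLS (1991). Plates were read after 16-20 h at 35°-36° C. The lowest growth-inhibiting concentration gave the MIC (μg/ml).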

The test system of test [3] is S. epidermidis ATCC 31432. Description: In vitro antibacterial evaluation, MIC by agar dilution, S. epidermidis ATCC 31432. Particulars: Staphylococcus epidermidis, ATCC31432. A digest of the protocol: as §1
Where [4] appears, read: E. faecalis ATCC 29212, read-out: MIC.

`O=C(Cc1ccccc1)N[C@@H]1C(=O)N2C(C(=O)O)=C(Sc3ccccc3CSC3=NCCN3)CS[C@H]12` [Cmpd 72]: the MIC with E. faecalis ATCC 29212 (setting [4]) was 1 µg/mL (≈ 1.85 µM); in the test on E. coli ATCC 25922 it was above 32 µg/mL; in the test with E. faecium ATCC 35667 it was 2 µg/mL (≈ 3.7 µM); in the test on P. aeruginosa ATCC 27853, above 32 µg/mL; in [1] it was 16 µg/mL (≈ 29.6 µM); with S. haemolyticus (Meth^R) it was 32 µg/mL (≈ 59.2 µM). Further, the MIC (against S. aureus ATCC 25923; with S. aureus ATCC 29213; in test [2]; in test [3]) was below 0.25 µg/mL each time.

Consider `C[n+]1ccc(SCc2ccccc2SC2=C(C(=O)[O-])N3C(=O)[C@@H](NC(=O)Cc4ccccc4)[C@H]3SC2)cc1` [Cmpd 73, (7R)-7-[(Phenylacetyl)amino]-3-(2-(N-methylpyridin-4-ium)thiomethyl)phenylthio)-3-cephem-4-carboxylate, inner salt], for which the MIC in the test with E. faecalis ATCC 29212 (setting [4]) was 0.5 µg/mL; with E. coli ATCC 25922, above 32 µg/mL; with E. faecium ATCC 35667, 1 µg/mL; in the test on P. aeruginosa ATCC 27853 it was above 32 µg/mL; in [1], 16 µg/mL; in the test on S. haemolyticus (Meth^R), 32 µg/mL. Moreover, the MIC (in the test with S. aureus ATCC 25923; in the test with S. aureus ATCC 29213; in [2]; in test [3]) was below 0.25 µg/mL throughout.

On to `CCN=C(NCC)SCc1ccccc1SC1=C(C(=O)O)N2C(=O)[C@@H](NC(=O)Cc3ccccc3)[C@H]2SC1` [Cmpd 74, (7R)-7-[(Phenylacetyl)amino]-3-(2-N,N'-diethylisothiouroniummethylphenylthio)-3-cephem-4-carboxylate, inner salt], for which the minimum inhibitory concentration (MIC) in the test with E. faecalis ATCC 29212 (setting [4]) was 1 µg/mL; in the test on E. coli ATCC 25922, above 32 µg/mL; with E. faecium ATCC 35667, 2 µg/mL; in the test with P. aeruginosa ATCC 27853 it was above 32 µg/mL; in [1], 32 µg/mL; in the test with S. haemolyticus (Meth^R) it was above 32 µg/mL. The MIC (in the test with S. aureus ATCC 25923; in the test with S. aureus ATCC 29213; in test [2]; in test [3]) was below 0.25 µg/mL throughout.

Consider `O=C(Cc1ccccc1)N[C@@H]1C(=O)N2C(C(=O)O)=C(Sc3ccccc3CSc3ncccn3)CS[C@H]12` [Cmpd 75], for which the MIC was 1 µg/mL (≈ 1.82 µM) with E. faecalis ATCC 29212 (setting [4]); above 32 µg/mL in the test on E. coli ATCC 25922; 2 µg/mL (≈ 3.63 µM) with E. faecium ATCC 35667; above 32 µg/mL with P. aeruginosa ATCC 27853; 32 µg/mL (≈ 58.1 µM) in [1]; above 32 µg/mL in the test on S. haemolyticus (Meth^R). Moreover, the minimum inhibitory concentration (MIC) (in the test on S. aureus ATCC 25923; with S. aureus ATCC 29213; in [2]; in test [3]) was below 0.25 µg/mL each time.

As for `CNC(=N)SCc1ccccc1SC1=C(C(=O)O)N2C(=O)[C@@H](NC(=O)Cc3ccccc3)[C@H]2SC1` [Cmpd 76, (7R)-7-[(Phenylacetyl)amino]-3-(2-N-methylisothiouroniummethylphenylthio)-3-cephem-4-carboxylate, inner salt], the MIC with E. faecalis ATCC 29212 (setting [4]) was 1 µg/mL; with E. coli ATCC 25922, above 32 µg/mL; in the test on E. faecium ATCC 35667 it was 2 µg/mL; in the test with P. aeruginosa ATCC 27853, above 32 µg/mL; in test [1], 8 µg/mL; in the test with S. haemolyticus (Meth^R), 32 µg/mL. The MIC (with S. aureus ATCC 25923; against S. aureus ATCC 29213; in [2]; in test [3]) was below 0.25 µg/mL each time.

As for `Cc1nnc(SCc2ccccc2SC2=C(C(=O)O)N3C(=O)[C@@H](NC(=O)Cc4ccccc4)[C@H]3SC2)s1` [Cmpd 77], the MIC in the test with E. faecalis ATCC 29212 (setting [4]) is 1 µg/mL (≈ 1.75 µM); with E. coli ATCC 25922, above 32 µg/mL; in the test on E. faecium ATCC 35667, 2 µg/mL (≈ 3.5 µM); in the test on P. aeruginosa ATCC 27853 it was above 32 µg/mL; in [1], 32 µg/mL (≈ 56.1 µM); in the test with S. haemolyticus (Meth^R), above 32 µg/mL. Further, the minimum inhibitory concentration (MIC) (in the test on S. aureus ATCC 25923; against S. aureus ATCC 29213; in [2]; in [3]) was below 0.25 µg/mL each time.

As for `N#CCC(=O)N[C@@H]1C(=O)N2C(C(=O)O)=C(Sc3cccnc3-c3ccccc3)CS[C@H]12` [Cmpd 85, (7R)-7-[(Cyanoacetyl)amino]-3-(2-phenylpyridin-3-ylthio)-3-cephem-4-carboxylic acid], the MIC with E. faecalis ATCC 29212 (setting [4]) was 4 µg/mL (≈ 8.84 µM); in the test on E. coli ATCC 25922, above 32 µg/mL; in the test on E. faecium ATCC 35667, 2 µg/mL (≈ 4.42 µM); in the test with P. aeruginosa ATCC 27853, above 32 µg/mL; in test [1], 16 µg/mL (≈ 35.4 µM); in the test on S. haemolyticus (Meth^R), 16 µg/mL (≈ 35.4 µM). The MIC (in the test with S. aureus ATCC 25923; against S. aureus ATCC 29213; in test [2]; in [3]) was below 0.25 µg/mL throughout.

For `Nc1nc(/C(=N/OCCF)C(=O)N[C@@H]2C(=O)N3C(C(=O)O)=C(Sc4ccnn4-c4ccccc4)CS[C@H]23)cs1` [Cmpd 90, (7R)-7-[(Z)-2-(aminothiazol-4-yl)-2-(2-fluoroethyloxyimino)acetamido]-3-(1-N-phenylpyrazol-5-ylthio)-3-cephem-4-carboxylic acid], the MIC in the test on E. faecalis ATCC 29212 (setting [4]) was determined as 32 µg/mL (≈ 54.3 µM); with E. coli ATCC 25922 it was 4 µg/mL (≈ 6.78 µM); with E. faecium ATCC 35667, 16 µg/mL (≈ 27.1 µM); in the test on P. aeruginosa ATCC 27853 it was 16 µg/mL (≈ 27.1 µM); in test [1], 16 µg/mL (≈ 27.1 µM); in the test on S. haemolyticus (Meth^R) it was 32 µg/mL (≈ 54.3 µM). Besides, the MIC in the test on S. aureus ATCC 25923 (S. aureus ATCC 25923, read-out: MIC) is 0.5 µg/mL (≈ 0.848 µM); in the test with S. aureus ATCC 29213 (S. aureus ATCC 29213, read-out: MIC), 1 µg/mL (≈ 1.7 µM); in test [2], 1 µg/mL (≈ 1.7 µM); in [3] (S. epidermidis ATCC 31432, read-out: MIC), below 0.25 µg/mL.

Turning to `Nc1nc(-c2ccccc2)c(SC2=C(C(=O)O)N3C(=O)[C@@H](NC(=O)Cc4ccccc4)[C@H]3SC2)s1` [Cmpd 92, (7R)-7-[(Phenylacetyl)amino]-3-(2-amino-4-phenyl-thiazol-5-ylthio)-3-cephem-4-carboxylic acid], the MIC was 16 µg/mL (≈ 30.5 µM) in the test on E. faecalis ATCC 29212 (setting [4]); above 32 µg/mL in the test on E. coli ATCC 25922; 16 µg/mL (≈ 30.5 µM) in the test with E. faecium ATCC 35667; above 32 µg/mL in the test with P. aeruginosa ATCC 27853; 16 µg/mL (≈ 30.5 µM) in [1]; 8 µg/mL (≈ 15.2 µM) with S. haemolyticus (Meth^R). Besides, the MIC (against S. aureus ATCC 25923; in the test with S. aureus ATCC 29213; in test [2]; in test [3]) was below 0.25 µg/mL throughout.

For the compound `O=C(Cc1ccccc1)N[C@@H]1C(=O)N2C(C(=O)O)=C(Sc3snnc3-c3ccccc3)CS[C@H]12` [Cmpd 93, (7R)-7-[(Phenylacetyl)amino]-3-(4-phenyl-1,2,3-thiadiazol-5-ylthio)-3-cephem-4-carboxylic acid], the MIC was below 0.25 µg/mL with E. faecalis ATCC 29212; above 32 µg/mL with E. coli ATCC 25922; 0.5 µg/mL (≈ 0.979 µM) with E. faecium ATCC 35667; above 32 µg/mL in the test on P. aeruginosa ATCC 27853; 8 µg/mL (≈ 15.7 µM) in test [1]; 8 µg/mL (≈ 15.7 µM) in the test on S. haemolyticus (Meth^R). The MIC (against S. aureus ATCC 25923; against S. aureus ATCC 29213; in [2]; in test [3]) was below 0.25 µg/mL each time.

The term MIC denotes the lowest concentration that inhibits growth of the organism.
